Measurements reported in PMC8710297, “Identification of potent SENP1 inhibitors that inactivate SENP1/JAK2/STAT signaling pathway and overcome platinum drug resistance in ovarian cancer” (Clinical and Translational Medicine, 2021).

Target: T1, SENP1(C603A) (Homo sapiens, UniProt Q9P0U3, C603A)
T1 construct: GST; made in house
T1 sequence (Q9P0U3 1-644 C603A): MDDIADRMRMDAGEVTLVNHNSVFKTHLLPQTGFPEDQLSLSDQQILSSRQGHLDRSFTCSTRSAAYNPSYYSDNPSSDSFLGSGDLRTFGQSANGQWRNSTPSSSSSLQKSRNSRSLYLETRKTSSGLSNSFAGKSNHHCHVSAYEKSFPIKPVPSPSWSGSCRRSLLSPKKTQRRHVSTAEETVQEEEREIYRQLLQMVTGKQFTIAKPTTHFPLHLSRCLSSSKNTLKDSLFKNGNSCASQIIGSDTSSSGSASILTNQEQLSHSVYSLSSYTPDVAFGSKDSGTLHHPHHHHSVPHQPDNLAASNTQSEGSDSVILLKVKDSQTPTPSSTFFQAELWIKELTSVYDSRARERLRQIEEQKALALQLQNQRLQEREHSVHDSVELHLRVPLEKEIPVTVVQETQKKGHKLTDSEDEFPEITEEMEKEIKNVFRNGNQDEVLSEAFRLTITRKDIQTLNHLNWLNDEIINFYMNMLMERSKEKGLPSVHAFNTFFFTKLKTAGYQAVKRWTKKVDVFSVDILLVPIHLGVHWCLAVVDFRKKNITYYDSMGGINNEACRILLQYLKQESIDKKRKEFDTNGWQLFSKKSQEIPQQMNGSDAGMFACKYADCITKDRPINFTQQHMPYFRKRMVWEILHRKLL
Assay: UPLC-MS/MS of UA associated with IPs of SENP1 proteins
Type: binding
Conditions: mass-spec and surface plasmon resonance analyses
Method: FIGURE 2 UA directly interacts with Sentrin‐specific protease 1 (SENP1). (A) Cellular thermal shift assay to examine the interaction of UA with SENP1. IGROV1 CR cells pretreated with MG132 (10 μM, 1 h) were incubated with DMSO or UA for 4 h before being shifted to indicated temperatures. SENP1 stability was analyzed by using Western blot against SENP1 antibody. Right panel, quantification of non‐denatured SENP1 fraction shown in the left panel. (B) Cell‐free thermal shift assay to examine interactions of UA with SENP1. Purified SENP1 proteins were incubated with DMSO or UA for 4 h before being shifted to the indicated temperatures. SENP1 stability was analyzed by using Western blot against SENP1 antibody. Right panel, quantification of non‐denatured SENP1 fraction shown in the left panel. […] Stability of SENP1(C603A) was analyzed by using Western blot against SENP1 antibody. […] Left; Ultra‐high performance liquid‐chromatography‐MS/MS analyses of associated UA in indicated samples, right; quantification of data shown in left (the binding affinity of UA with SENP1‐C603A was normalized as 1). […]
Cell viability was detected using Sulforhodamine B (SRB) assay as described previously (3).
Absorbance at 51 0 nm was detected using a SpectraMax Re a d e r (Molecular Devices) and […]

## C[C@H]1[C@H](C)CC[C@]2(C(=O)O)CC[C@]3(C)C(=CC[C@@H]4[C@@]5(C)CC[C@H](O)C(C)(C)[C@@H]5CC[C@]43C)[C@H]12 [UA, ursolic acid, reference compound]
  binding of UA to SENP1(C603A) compared to SENP1: decreased binding affinities
